Measured values: patent EP4623928A1, “GLP-1R ANTAGONISTS FOR THE TREATMENT OF CANCER” (Fiorina, Paolo, priority 2024, dated 2025)

Legend:
[1] = system: mitogen-stimulated murine splenocytes; assay: IFN-γ ELISpot assay on anti-CD3/anti-CD28 stimulated splenocytes; type: cell-based, C57BL/6 mice; conditions: Exe-9 added to Exe-4, 0.1, 1 or 10 nM, 24 hours
Experimental: An ELISPOT assay was used to measure the number of IFN-γ-producing cells according to the manufacturer's protocol (BD Biosciences) as previously performed by our group (39). To test the role of GLP-1R-driven immunity on the anti-CD3/28 non-autoimmune specific response, 1×10^6 splenocytes isolated from C57BL/6 mice were cultured in a microwell plate (BD Biosciences) coated with IFN-y capture antibody (Ab) in the presence of the following soluble anti-CD3 and anti-CD28 at 0,5ug/ml for 24 hours. Exe-4 and/or Exe-4+Exe-9-39 at concentrations of 0.1, 1 or 10 nM were added to the culture. After 24 hours, bound secondary Ab was visualized using HRP-streptavidin and the AEC substrate kit (BD Biosciences). Spots were counted using an Immunospot analyzer (Cellular Technology Ltd., Cleveland, OH) and expressed as the number of cytokine-producing spots per 1×10^6 cells. After 24hours, ELISpot plates were developed and acquired on an ELISpot reader, as previously described.

CD4^+ and CD8^+ T cells = assay: Cell death and proliferation of CD4+ and CD8+ T cells in splenocytes activated with anti-CD3/anti-CD28 (FACS); type: cell-based, C57BL/6 mice
islet allografts = assay: Murine islet allotransplantation (BALB/c islets into STZ-treated C57BL/6 mice); type: in vivo
Experimental: Pancreatic islets from BALB/c mice were isolated by collagenase digestion and density gradient separation as previously described (33, 34). Subsequently, four to five hundred islets were inoculated under the renal capsule of each C57BL/6 recipient rendered diabetic with streptozotocin (STZ) (200 mg/kg, administered i.p. Sigma-Aldrich). Islet transplantation success was confirmed by glycaemia normalization. Rejection of islet allografts was defined as blood glucose levels >250 mg/dl for at least 2 consecutive days (35). Treatment modalities were the following: transplanted mice were intraperitoneally injected according to the following protocols: 1) Exendin-4 (Exe-4) (Amylin Pharmaceuticals, San Diego, CA -USA) 0.2pg twice/day for two weeks after transplant; 2) Exe-4 0.2pg twice/day from the day before until two weeks after transplant; 3) Exendin-4 2µg twice/day from the day before until two weeks after transplant; 4) Exendin-4 2µg twice/day + Exendin-9-39 (Exe-9) (Sigma-Aldrich) 2µg twice/day from the day before until two weeks after transplant; 5) Exendin-4 2µg twice/day from the day before until two weeks after transplant + Rapamycin 0.1mg/die for two weeks; 6) saline 0.5ml twice/day for two weeks. The follow-up of the transplanted mice was for 100 days.

Cardiac allografts = assay: Murine cardiac allotransplantation (BALB/c hearts into C57BL/6 mice); type: in vivo
Experimental: Cardiac allografts from BALB/c mice were transplanted intra-abdominally in C57BL/6 mice using microsurgical techniques as described (31). Rejection was determined as complete cessation of cardiac contractility and was confirmed by direct visualization. Transplanted mice were intraperitoneally injected according to the following protocols: 1) Exendin-4 (Exe-4) (Amylin Pharmaceuticals, San Diego, CA - USA) 0.2pg twice/day for two weeks after transplant; 2) Exe-4 0.2pg twice/day from the day before until two weeks after transplant; 3) Exe-4 2µg twice/day from the day before until two weeks after transplant; 4) Exe-4 2µg twice/day + Exendin-9-39 (Exe-9) (Sigma-Aldrich) 2µg twice/day from the day before until two weeks after transplant; 5) Exe-4 2µg twice/day from the day before until two weeks after transplant + Rapamycin 0.1mg/die for two weeks; 6) saline 0.5ml twice/day for two weeks.

[2] = system: MC38 colorectal cancer cells; assay: Colorectal tumour model (MC38 cells injected into the distal posterior rectum); type: in vivo, C57BL/6 mice
Experimental: Female C57BL/6 mice were anesthetized with 100 mg/kg of ketamine and 50 mg/kg of xylazine. Next, by using a 29-gauge syringe, 2×10^5 MC38 cells were injected submucosally into the distal posterior rectum in a final volume of […], as described previously (36, 37). MC38-injected mice were randomly assigned into 2 groups: (i) Exe-9-treated group (n=8), where all mice received an intraperitoneal injection of 2 µg of Exendin-9-39 (Exe-9) starting by Day1 for a total of 14 days; (ii) untreated-group (n=6), where all mice received an IP injection of PBS starting by day 1 and for a total of 14 days. Tumour growth was visually monitored daily. After animals' sacrifice, tumours were measured by a digital calliper measuring tumour length, width, and height and were weighted using a digital scale. Procedures involving mice wereb conformed to institutional guidelines in agreement with national and international law and were approved by the ethics committee by the Ministry of Health.

[3] = co-administration Exe-4 2µg twice/day + Exe-9 2µg twice/day
[4] = splenic, Exe-9 co-administration with Exe-4
[5] = 2 µg of Exe-9 once a day for 14 days, vs untreated
[6] = Exe-9-treated group vs untreated

For Exendin-9-39 [Exe-9], the “effect of Exe-9 on the Exe-4-induced reduction of IFN-y producing cells” value [1] was “significantly hampered the overseen immunoregulatory effect of Exe-4”, the “effect of Exe-9 on Exe-4-induced cell death” value (CD4^+ and CD8^+ T cells; Exe-9 added to Exe-4, anti-CD3/anti-CD28 activated splenocytes) was “reduced the effect” and the “percentages of proliferating (or cell trace positive) CD4^+ and CD8^+ T cells” value (CD4^+ and CD8^+ T cells; addition of antagonist Exe-9 to Exe-4, anti-CD3/CD28 Abs (Fig. 13D-E)) was “No differences”. For the same substance, the “effect of Exe-9 on the beneficial effects of Exe-4 (islet allograft survival)” value (islet allografts; [3]) was “partly abolished”, the “graft infiltration (Hematoxylin and eosin staining)” value (islet allografts; islet allograft at day 14, co-administration of Exe-9 with Exe-4) was “restored the graft infiltration” and the “CD8^+ effector cell number” value (islet allografts; [4]) was “restored CD8^+ effector cell number”. The Tregs (islet allografts; [4]) was “did not affect Tregs”, the “effect of Exe-9 on the beneficial effects of Exe-4 (heart allograft survival)” value (Cardiac allografts; [3]) was “partly abolished” and the “effect of Exe-9 on the Exe-4-induced decrease of graft infiltration” value (Cardiac allografts; day-7 heart allograft, Exe-9 co-administration with Exe-4) was “abolished”. The “effect of Exe-9 on the Exe-4-induced decrease of CD4^+ and CD8^+ effector T cells” value (Cardiac allografts; [4]) was “reverted”, the tumour size ([2]; 2 µg of Exe-9 once a day for 14 days, intraperitoneal, vs untreated (PBS)) was “significantly reduced” and the colon length [2, 5] was “no differences”. For the same substance, the “mesenteric lymph nodes volume” value [2, 5] was “significantly reduced”, the spleen weight [2, 5] was “no differences” and the “CD3^+ and CD8^+ effector memory T cells within the spleen and mesenteric lymph nodes” value [2, 6] was “no major differences”. For the same substance, the “tumor infiltration of CD3^+ T cells (FACS)” value [2, 6] was “increased infiltration”, the “tumor infiltration of activated effector memory CD8^+ T cells (FACS)” value [2, 6] was “increased infiltration” and the “intratumoral infiltration of CD3^+ T cells (pathological examination)” value ([2]; Exe-9-treated group vs untreated, immunohistochemistry) was “significant intratumoral infiltration”.
